Series [1] has as its system Human (mixed gender) hepatocytes pooled from 10 donors. Nature of the series: In vitro intrinsic clearance in human hepatocytes. The series is classed as in vitro ADME. Particulars: human hepatocytes 0.545 million cells/mL, 5 μM, up to 60 minutes at 37° C.; weighted by ratio of D0, D1 and D2. As for the experimental part: To use human hepatocytes to assess the in vitro intrinsic clearance of deuterated DMT analogue blends relative to DMT.
Human (mixed gender) hepatocytes pooled from 10 donors (0.545 million cells/mL) were used to investigate the in vitro intrinsic clearance of DMT and 6 deuterated analogues.
A concentration of 5 μM was used for all test compounds, as well as sumatriptan, serotonin, benzylamine controls. This concentration was chosen in order to maximise the signal-to-noise ratio, while remaining under the Michaelis constant (Km) for the monoamine oxidase enzyme (MAO). Diltiazem and diclofenac controls were used at a laboratory-validated concentration of 1 μM.
Test compounds were mixed with the hepatocyte suspension within a 96-well plate and incubated for up to 60 minutes at 37° C. […] At 7 time points, small aliquots were withdrawn, and the test compound/blend concentration therein was measured by LC-MS/MS. The time points measured were 2, 4, 8, 15, 30, 45 and 60 minutes. […]
The resulting concentration-time profile was then used to calculate intrinsic clearance (CLint) and half-life (t½). […] Intrinsic clearance is calculated from the slope/elimination rate constant and the formula is CLint=(−1000*slope)/cell denisty in 1E6 cells/ml, to give units of microlitre/min/million cells.
Intrinsic clearance and half-life values were calculated for DMT and the 6 deuterated mixtures described above.

The conditions of series [2]: short-acting psychedelic; cited from earlier work.

With `CN(C)CCc1c[nH]c2ccccc12` [DMT, N,N-dimethyltryptamine], the Intrinsic clearance in series [1] amounted to 13.77 μL/min/million cells.
In the case of `CN(C)CCc1c[nH]c2ccccc12` [N,N-dimethyltryptamine (DMT)], in series [2], the duration of action result is recorded as “under 20 minutes”.

These data come from patent US12076311B2, “Therapeutic compositions comprising deuterated or partially deuterated N,N-dimethyltryptamine compounds” (CYBIN UK LTD, priority 2019, dated 2024).
